{
  "source": "ChEMBL document CHEMBL5360570",
  "about": "“Discovery of pyrazolo[3,4-b]pyridine derivatives as novel and potent Mps1 inhibitors for the treatment of cancer” (Eur J Med Chem, 2023)",
  "key": {"[1]": {"assay": "Toxicity in BALB/c nude mouse xenografted with human MDA-MB-468 cells assessed as change in body weight at 30 mg/kg, iv administered once daily for 21 days […]", "format": "organism-based", "conditions": "in vivo, 504 h, time 21 day"}, "[2]": {"test_system": "ALK tyrosine kinase receptor (Homo sapiens), Q9UM73 [UNDEFINED MUTATION]", "sequence (Q9UM73 whole entry, looked up, change not shown)": "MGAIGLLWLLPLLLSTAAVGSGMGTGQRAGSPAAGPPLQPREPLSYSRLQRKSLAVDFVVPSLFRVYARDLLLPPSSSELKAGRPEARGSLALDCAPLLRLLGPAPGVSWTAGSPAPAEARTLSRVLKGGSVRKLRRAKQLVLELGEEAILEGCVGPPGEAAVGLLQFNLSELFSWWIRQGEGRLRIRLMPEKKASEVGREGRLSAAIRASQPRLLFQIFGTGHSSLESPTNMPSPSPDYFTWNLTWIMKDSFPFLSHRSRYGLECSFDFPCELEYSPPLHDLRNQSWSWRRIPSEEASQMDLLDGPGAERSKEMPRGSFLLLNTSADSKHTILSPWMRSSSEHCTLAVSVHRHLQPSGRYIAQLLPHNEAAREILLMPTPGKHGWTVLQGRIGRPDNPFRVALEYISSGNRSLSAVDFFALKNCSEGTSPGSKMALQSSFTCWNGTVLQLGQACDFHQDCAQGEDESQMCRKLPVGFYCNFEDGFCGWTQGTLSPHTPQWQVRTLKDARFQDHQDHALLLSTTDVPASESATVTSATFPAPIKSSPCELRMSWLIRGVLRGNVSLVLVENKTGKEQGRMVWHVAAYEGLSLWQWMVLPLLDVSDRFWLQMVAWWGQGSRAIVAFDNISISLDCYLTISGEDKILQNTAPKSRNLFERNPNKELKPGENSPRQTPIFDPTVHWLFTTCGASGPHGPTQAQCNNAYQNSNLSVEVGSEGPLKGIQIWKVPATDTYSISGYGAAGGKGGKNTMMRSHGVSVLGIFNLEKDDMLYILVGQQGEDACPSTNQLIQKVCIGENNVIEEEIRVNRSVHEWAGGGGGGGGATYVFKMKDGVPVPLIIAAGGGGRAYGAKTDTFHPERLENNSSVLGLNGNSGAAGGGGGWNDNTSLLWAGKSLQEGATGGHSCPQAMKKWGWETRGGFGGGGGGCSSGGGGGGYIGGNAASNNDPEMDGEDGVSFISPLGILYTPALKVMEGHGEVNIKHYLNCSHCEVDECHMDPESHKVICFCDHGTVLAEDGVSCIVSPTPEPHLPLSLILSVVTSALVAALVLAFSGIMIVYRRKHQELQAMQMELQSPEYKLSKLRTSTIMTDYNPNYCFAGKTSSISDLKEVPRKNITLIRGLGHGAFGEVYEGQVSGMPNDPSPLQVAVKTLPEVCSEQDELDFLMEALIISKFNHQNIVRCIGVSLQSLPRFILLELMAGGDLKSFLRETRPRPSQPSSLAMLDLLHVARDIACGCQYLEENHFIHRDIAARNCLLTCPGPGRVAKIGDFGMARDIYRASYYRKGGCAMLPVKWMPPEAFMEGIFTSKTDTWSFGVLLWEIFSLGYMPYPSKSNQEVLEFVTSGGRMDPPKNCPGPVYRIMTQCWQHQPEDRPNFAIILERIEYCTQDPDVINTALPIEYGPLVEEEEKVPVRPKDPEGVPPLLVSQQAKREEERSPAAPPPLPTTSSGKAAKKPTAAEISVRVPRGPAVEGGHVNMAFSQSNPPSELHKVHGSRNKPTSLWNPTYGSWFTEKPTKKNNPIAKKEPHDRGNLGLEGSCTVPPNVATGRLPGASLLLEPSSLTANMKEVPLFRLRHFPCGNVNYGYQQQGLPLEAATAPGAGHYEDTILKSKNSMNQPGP", "assay": "Inhibition of ALK T1151/L1152 mutant (unknown origin) assessed as residual activity at 1 uM relative to control"}, "[3]": {"target": "NUAK family SNF1-like kinase 2 (Homo sapiens) (UniProt Q9H093)", "sequence (Q9H093 whole entry)": "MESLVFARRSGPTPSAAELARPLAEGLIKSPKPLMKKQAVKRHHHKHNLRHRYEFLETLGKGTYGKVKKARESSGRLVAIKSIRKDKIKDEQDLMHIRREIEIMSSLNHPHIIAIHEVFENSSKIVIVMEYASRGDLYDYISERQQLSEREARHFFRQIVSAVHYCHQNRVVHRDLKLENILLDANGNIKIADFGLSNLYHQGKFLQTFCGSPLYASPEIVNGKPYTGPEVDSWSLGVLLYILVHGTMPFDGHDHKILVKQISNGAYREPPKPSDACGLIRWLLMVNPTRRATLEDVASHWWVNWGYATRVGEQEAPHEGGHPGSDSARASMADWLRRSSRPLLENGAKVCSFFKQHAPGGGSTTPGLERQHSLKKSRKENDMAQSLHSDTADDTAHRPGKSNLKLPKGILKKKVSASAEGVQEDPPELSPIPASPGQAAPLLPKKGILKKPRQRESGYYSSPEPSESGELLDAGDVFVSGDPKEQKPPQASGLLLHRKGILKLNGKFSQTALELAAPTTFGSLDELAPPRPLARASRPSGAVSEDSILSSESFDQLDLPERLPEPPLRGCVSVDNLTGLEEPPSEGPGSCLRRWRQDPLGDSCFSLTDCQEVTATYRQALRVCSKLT", "assay": "Inhibition of SNARK (unknown origin) assessed as residual activity at 1 uM relative to control"}, "[4]": {"test_system": "ALK tyrosine kinase receptor (Homo sapiens), Q9UM73 [T1151M]", "sequence (Q9UM73 whole entry T1151M)": "as the sequence (Q9UM73 whole entry, looked up, change not shown) above, with T1151M counted along it", "assay": "Inhibition of ALK T1151M mutant (unknown origin) assessed as residual activity at 1 uM relative to control"}, "[5]": {"assay": "Metabolic stability in human liver microsome assessed as parent compound remaining preincubated for 10 mins followed by NADPH addition and measured immediately by LC-MS/MS analysis", "format": "ADME", "conditions": "liver microsomes, read-out: Stability"}, "[6]": {"test_system": "ALK tyrosine kinase receptor (Homo sapiens), Q9UM73 [G1269A]", "sequence (Q9UM73 whole entry G1269A)": "as the sequence (Q9UM73 whole entry, looked up, change not shown) above, with G1269A counted along it", "assay": "Inhibition of ALK G1269A mutant (unknown origin) assessed as residual activity at 1 uM relative to control"}, "[7]": {"assay": "AUC (0 to infinity) in Sprague-Dawley rat at 2 mg/kg, iv measured upto 24 hrs by LC-MS/MS analysis", "format": "ADME, organism-based", "parameters": "dose 2 mg/kg, time < 24 hrs, route iv", "conditions": "in vivo"}, "[8]": {"target": "ALK tyrosine kinase receptor (Homo sapiens) (UniProt Q9UM73)", "assay": "Inhibition of ALK (unknown origin) assessed as residual activity at 1 uM relative to control"}, "[9]": {"assay": "Metabolic stability in human liver microsome assessed as half life preincubated for 10 mins followed by NADPH addition and measured upto 60 mins by LC-MS/MS analysis", "format": "ADME", "conditions": "liver microsomes, time < 70 min"}, "[10]": {"target": "Leukocyte tyrosine kinase receptor (Homo sapiens) (UniProt P29376)", "assay": "Inhibition of TYK1 (unknown origin) assessed as residual activity at 1 uM relative to control"}, "[11]": {"assay": "MRT (0 to infinity) in Sprague-Dawley rat at 10 mg/kg, po measured upto 24 hrs by LC-MS/MS analysis", "format": "ADME, organism-based", "conditions": "in vivo"}, "[12]": {"test_system": "Fibroblast growth factor receptor 2 (Homo sapiens), P21802 [V564F]", "assay": "Inhibition of FGFR2 V564F mutant (unknown origin) assessed as residual activity at 1 uM relative to control"}, "[13]": {"assay": "MRT (0 to t) in Sprague-Dawley rat at 2 mg/kg, iv measured upto 24 hrs by LC-MS/MS analysis", "format": "ADME, organism-based", "conditions": "in vivo"}, "MDA-MB-468": {"test_system": "MDA-MB-468", "assay": "cells", "format": "functional, cell-based", "conditions": "Homo sapiens, MDA-MB-468, 72 h", "description": "Antiproliferative activity against human MDA-MB-468 cells assessed inhibition of cell growth incubated for 72 hrs by CCK-8 assay"}, "[14]": {"target": "Leucine-rich repeat serine/threonine-protein kinase 2 (Homo sapiens) (UniProt Q5S007)", "sequence (Q5S007 whole entry)": "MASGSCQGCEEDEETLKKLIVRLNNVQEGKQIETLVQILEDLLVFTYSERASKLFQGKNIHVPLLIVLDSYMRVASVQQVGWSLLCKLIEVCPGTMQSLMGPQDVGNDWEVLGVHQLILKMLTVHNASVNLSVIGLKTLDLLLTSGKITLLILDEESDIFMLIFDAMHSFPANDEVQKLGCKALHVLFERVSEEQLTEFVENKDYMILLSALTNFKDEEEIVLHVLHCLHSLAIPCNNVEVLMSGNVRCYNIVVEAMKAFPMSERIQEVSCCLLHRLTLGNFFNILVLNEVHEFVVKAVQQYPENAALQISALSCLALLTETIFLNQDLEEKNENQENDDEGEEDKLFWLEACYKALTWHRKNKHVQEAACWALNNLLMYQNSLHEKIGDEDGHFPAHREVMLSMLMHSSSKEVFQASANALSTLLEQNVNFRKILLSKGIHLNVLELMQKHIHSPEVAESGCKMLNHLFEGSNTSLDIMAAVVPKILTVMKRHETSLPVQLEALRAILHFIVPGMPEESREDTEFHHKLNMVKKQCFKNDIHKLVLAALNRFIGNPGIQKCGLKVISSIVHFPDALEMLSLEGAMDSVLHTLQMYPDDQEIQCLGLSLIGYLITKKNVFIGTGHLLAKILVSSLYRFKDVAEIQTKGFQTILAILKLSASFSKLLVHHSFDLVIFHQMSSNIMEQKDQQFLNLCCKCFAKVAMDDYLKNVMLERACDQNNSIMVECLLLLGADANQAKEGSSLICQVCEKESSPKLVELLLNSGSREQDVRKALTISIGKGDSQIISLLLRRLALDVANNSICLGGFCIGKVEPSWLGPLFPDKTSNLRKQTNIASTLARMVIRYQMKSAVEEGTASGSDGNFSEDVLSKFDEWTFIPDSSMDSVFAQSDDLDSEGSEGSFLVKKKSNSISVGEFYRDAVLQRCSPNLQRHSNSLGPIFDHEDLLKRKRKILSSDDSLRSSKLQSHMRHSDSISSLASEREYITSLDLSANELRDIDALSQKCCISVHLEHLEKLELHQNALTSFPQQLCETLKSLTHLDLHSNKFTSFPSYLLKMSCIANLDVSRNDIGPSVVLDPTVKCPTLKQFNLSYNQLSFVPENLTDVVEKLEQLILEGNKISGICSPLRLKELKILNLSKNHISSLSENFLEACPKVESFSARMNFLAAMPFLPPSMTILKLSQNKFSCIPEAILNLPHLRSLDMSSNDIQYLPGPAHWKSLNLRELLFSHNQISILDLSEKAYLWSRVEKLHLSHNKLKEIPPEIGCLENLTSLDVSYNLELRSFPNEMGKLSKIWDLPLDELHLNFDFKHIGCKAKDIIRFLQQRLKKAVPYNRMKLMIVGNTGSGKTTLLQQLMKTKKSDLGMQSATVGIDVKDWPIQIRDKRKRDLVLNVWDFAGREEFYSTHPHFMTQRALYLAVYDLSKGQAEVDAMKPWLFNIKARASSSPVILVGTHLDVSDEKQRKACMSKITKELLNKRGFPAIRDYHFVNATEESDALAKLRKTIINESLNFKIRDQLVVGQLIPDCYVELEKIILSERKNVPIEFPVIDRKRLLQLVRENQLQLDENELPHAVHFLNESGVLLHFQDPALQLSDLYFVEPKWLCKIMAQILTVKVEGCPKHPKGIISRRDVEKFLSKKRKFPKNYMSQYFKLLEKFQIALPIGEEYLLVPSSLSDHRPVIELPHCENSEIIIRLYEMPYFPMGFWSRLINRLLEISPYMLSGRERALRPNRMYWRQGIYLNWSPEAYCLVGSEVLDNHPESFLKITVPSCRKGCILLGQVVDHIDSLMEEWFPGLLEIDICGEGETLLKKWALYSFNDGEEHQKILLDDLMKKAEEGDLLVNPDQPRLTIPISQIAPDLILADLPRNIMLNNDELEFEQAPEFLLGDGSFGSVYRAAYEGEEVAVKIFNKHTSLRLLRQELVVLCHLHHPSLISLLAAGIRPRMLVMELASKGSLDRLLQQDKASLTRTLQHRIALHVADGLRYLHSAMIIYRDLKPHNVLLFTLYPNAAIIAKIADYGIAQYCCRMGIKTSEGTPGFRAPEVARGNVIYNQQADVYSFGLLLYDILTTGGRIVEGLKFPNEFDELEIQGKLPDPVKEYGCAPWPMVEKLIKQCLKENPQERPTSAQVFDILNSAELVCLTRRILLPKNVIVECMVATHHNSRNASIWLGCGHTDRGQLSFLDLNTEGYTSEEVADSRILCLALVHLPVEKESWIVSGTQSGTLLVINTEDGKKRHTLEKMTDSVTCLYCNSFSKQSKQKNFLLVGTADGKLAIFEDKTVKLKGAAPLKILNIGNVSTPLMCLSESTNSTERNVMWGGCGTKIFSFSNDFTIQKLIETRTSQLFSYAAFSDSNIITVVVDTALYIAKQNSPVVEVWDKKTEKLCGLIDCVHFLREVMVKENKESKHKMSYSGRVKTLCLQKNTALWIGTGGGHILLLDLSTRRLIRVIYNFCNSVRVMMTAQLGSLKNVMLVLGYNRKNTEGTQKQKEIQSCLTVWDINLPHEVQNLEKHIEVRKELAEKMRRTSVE", "assay": "Inhibition of LRRK2 (unknown origin) assessed as residual activity at 1 uM relative to control"}, "[15]": {"assay": "Metabolic stability in human liver microsome assessed as parent compound remaining preincubated for 10 mins followed by NADPH addition and measured at 60 mins by LC-MS/MS analysis", "format": "ADME", "conditions": "liver microsomes, time 70 min, read-out: Stability"}, "[16]": {"target": "Focal adhesion kinase 1 (Homo sapiens) (UniProt Q05397)", "assay": "Inhibition of PTK2 (unknown origin) assessed as residual activity at 1 uM relative to control"}, "[17]": {"assay": "AUC (0 to t) in Sprague-Dawley rat at 10 mg/kg, po measured upto 24 hrs by LC-MS/MS analysis", "format": "ADME, organism-based", "parameters": "time < 24 hrs, dose 10 mg/kg, route po", "conditions": "in vivo"}, "HT-29": {"test_system": "HT-29", "assay": "Antiproliferative activity against human HT-29 cells assessed inhibition of cell growth incubated for 72 hrs by CCK-8 assay", "format": "functional, cell-based", "conditions": "HT-29, 72 h"}, "[18]": {"assay": "Tmax in Sprague-Dawley rat at 2 mg/kg, iv measured upto 24 hrs by LC-MS/MS analysis", "format": "ADME, organism-based", "conditions": "in vivo"}, "[19]": {"target": "Serine/threonine-protein kinase SIK1 (Homo sapiens) (UniProt P57059)", "assay": "Inhibition of SIK1 (unknown origin) assessed as residual activity at 1 uM relative to control"}, "[20]": {"test_system": "ALK tyrosine kinase receptor (Homo sapiens), Q9UM73 [G1269S]", "sequence (Q9UM73 whole entry G1269S)": "as the sequence (Q9UM73 whole entry, looked up, change not shown) above, with G1269S counted along it", "assay": "Inhibition of ALK G1269S mutant (unknown origin) assessed as residual activity at 1 uM relative to control"}, "[21]": {"assay": "Half life in Sprague-Dawley rat at 10 mg/kg, po measured upto 24 hrs by LC-MS/MS analysis", "format": "ADME, organism-based", "conditions": "in vivo"}, "MV4-11": {"test_system": "MV4-11", "assay": "Antiproliferative activity against human MV4-11 cells assessed inhibition of cell growth incubated for 72 hrs by CCK-8 assay", "format": "functional, cell-based", "conditions": "MV4-11, 72 h"}, "[22]": {"assay": "Volume of distribution at steady state in Sprague-Dawley rat at 2 mg/kg, iv measured upto 24 hrs by LC-MS/MS analysis", "format": "ADME, organism-based", "conditions": "in vivo, read-out: Vdss"}, "[23]": {"assay": "Metabolic stability in human microsome assessed as intrinsic clearance preincubated for 10 mins followed by NADPH addition and measured upto 60 mins by LC-MS/MS analysis", "format": "ADME", "conditions": "microsomes, time < 70 min"}},
  "data": [
    {"smiles": "CCc1cccc(CC)c1N1CCn2cc(-c3nc(Nc4ccc(N5CCN(C(C)=O)CC5)cc4OC)nc4[nH]ncc34)cc2C1=O", "values": [
      {"measurement": "Activity", "setting": "[1]", "result": "Non-Toxic"},
      {"measurement": "Activity", "setting": "[2]", "result": "< 10", "unit": "%"},
      {"measurement": "Activity", "setting": "[3]", "result": "< 10", "unit": "%"},
      {"measurement": "Activity", "setting": "[4]", "result": "< 10", "unit": "%"},
      {"measurement": "remaining at 0 min", "setting": "[5]", "result": 100, "unit": "%"},
      {"measurement": "Activity", "setting": "[6]", "result": "< 10", "unit": "%"},
      {"measurement": "AUC(0-inf)", "setting": "[7]", "result": 1050, "unit": "ng·h/mL"},
      {"measurement": "Activity", "setting": "[8]", "result": "< 10", "unit": "%"},
      {"measurement": "half-life", "setting": "[9]", "result": 35.2, "unit": "min"},
      {"measurement": "Activity", "setting": "[10]", "result": "< 10", "unit": "%"},
      {"measurement": "MRT inf", "setting": "[11]", "result": 73.8, "unit": "min"},
      {"measurement": "Activity", "setting": "[12]", "result": "< 10", "unit": "%"},
      {"measurement": "MRT last at 24 h", "setting": "[13]", "result": 20.4, "unit": "min"},
      {"measurement": "IC50", "setting": "MDA-MB-468", "result": 221, "unit": "nM"},
      {"measurement": "Activity", "setting": "[14]", "result": "< 10", "unit": "%"},
      {"measurement": "remaining at 1 h", "setting": "[15]", "result": 29.4, "unit": "%"},
      {"measurement": "Activity", "setting": "[16]", "result": "< 10", "unit": "%"},
      {"measurement": "AUC(0-t) at 24 h", "setting": "[17]", "result": 204, "unit": "ng·h/mL"},
      {"measurement": "IC50", "setting": "HT-29", "result": "> 10000", "unit": "nM"},
      {"measurement": "Tmax", "setting": "[18]", "result": 4.98, "unit": "min"},
      {"measurement": "Activity", "setting": "[19]", "result": "< 10", "unit": "%"},
      {"measurement": "Activity", "setting": "[20]", "result": "< 10", "unit": "%"},
      {"measurement": "half-life", "setting": "[21]", "result": 63, "unit": "min"},
      {"measurement": "IC50", "setting": "MV4-11", "result": 823, "unit": "nM"},
      {"measurement": "Vd", "setting": "[22]", "result": 0.672, "unit": "L/kg"},
      {"measurement": "microsomal CLint", "setting": "[23]", "result": 39.4, "unit": "µL/min/mg"}
    ]}
  ]
}
